Target: T1, KIF18A (Homo sapiens, UniProt Q8NI77)
T1 sequence (Q8NI77 1-898): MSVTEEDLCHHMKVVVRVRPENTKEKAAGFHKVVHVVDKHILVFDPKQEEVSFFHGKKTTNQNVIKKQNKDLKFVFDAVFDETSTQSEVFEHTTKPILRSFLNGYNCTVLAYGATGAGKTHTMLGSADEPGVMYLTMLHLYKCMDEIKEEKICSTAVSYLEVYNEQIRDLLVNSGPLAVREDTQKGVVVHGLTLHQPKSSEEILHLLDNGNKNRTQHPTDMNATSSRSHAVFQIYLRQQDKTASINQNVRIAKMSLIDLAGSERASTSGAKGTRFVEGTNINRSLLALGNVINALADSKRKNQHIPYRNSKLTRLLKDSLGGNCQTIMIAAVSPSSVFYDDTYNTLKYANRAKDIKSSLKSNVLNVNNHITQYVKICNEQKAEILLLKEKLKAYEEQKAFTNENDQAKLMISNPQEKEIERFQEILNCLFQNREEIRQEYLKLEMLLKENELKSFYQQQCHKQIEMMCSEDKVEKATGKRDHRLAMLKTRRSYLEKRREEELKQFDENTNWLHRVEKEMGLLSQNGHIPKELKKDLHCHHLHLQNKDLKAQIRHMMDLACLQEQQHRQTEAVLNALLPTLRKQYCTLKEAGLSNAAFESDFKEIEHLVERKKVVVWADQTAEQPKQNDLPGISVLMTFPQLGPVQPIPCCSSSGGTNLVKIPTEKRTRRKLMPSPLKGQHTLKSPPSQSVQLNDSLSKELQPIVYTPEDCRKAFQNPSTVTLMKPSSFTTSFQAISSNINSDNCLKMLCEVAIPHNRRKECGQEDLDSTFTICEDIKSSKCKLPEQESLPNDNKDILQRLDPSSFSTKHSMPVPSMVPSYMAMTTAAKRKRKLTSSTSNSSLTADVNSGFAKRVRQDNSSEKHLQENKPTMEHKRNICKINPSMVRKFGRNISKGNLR
Test: KIF18A Assay (ADP Glo luminescence)
Format: biochemical
Details: enzyme pre-incubated 15 min at 25° C., ATP reaction 60 min, 10 pts 1:3 dilution
Method: The KIF18A assay was performed as follows:
1.1. Prepared 1× kinase Buffer 1.2. […] 1.3. Data analysis−Calculated IC50 and plot dose-response curve of compounds: • Calculated IC50 by fitting % Inhibition values and log of compound concentrations to nonlinear regression (dose response−variable slope) with GraphPad 6.0.
[formula] • X: log of inhibitor concentration; Y: % Inhibition

Structure (SMILES) | IC50 [nM]
O=C(Nc1ccc2c(n1)N1CCOCC1CO2)c1ccc(NS(=O)(=O)CCO)cc1N1CCC2(CC1)CC2 (stereo not drawn) [EX03, 4-((2-hydroxyethyl)sulfonamido)-2-(6-azaspiro[2.5]octan-6-yl)-N-(6a,7,9,10-tetrahydro-6H-[1,4]oxazino[4,3-d]pyrido[3,2-b][1,4]oxazin-2-yl)benzamide] | < 50
O=C(Nc1ccc(=O)n(C2CCOCC2)c1)c1ccc(NS(=O)(=O)CCO)cc1N1CCC2(CC1)CC2 [EX06, 4-((2-hydroxyethyl)sulfonamido)-N-(6-oxo-1-(tetrahydro-2H-pyran-4-yl)-1,6-dihydropyridin-3-yl)-2-(6-azaspiro[2.5]octan-6-yl)benzamide] | 500 to 15000
O=C(Nc1ccc(=O)n(C2CCOCC2)n1)c1ccc(NS(=O)(=O)CCO)cc1N1CCC2(CC1)CC2 [EX05, 4-((2-hydroxyethyl)sulfonamido)-N-(6-oxo-1-(tetrahydro-2H-pyran-4-yl)-1,6-dihydropyridazin-3-yl)-2-(6-azaspiro[2.5]octan-6-yl)benzamide] | 50 to 500
O=C(Nc1ccnc2c1OCC1COCCN21)c1ccc(NS(=O)(=O)CCO)cc1N1CCC2(CC1)CC2 (stereo not drawn) [EX01, 4-((2-hydroxyethyl)sulfonamido)-2-(6-azaspiro[2.5]octan-6-yl)-N-(6a,7,9,10-tetrahydro-6H-[1,4]oxazino[4,3-d]pyrido[3,2-b][1,4]oxazin-4-yl)benzamide] | < 50
CN1CCCOc2c(NC(=O)c3ccc(NS(=O)(=O)CCO)cc3N3CCC4(CC3)CC4)ccnc21 [EX02, 4-((2-hydroxyethyl)sulfonamido)-N-(5-methyl-2,3,4,5-tetrahydropyrido[3,2-b][1,4]oxazepin-9-yl)-2-(6-azaspiro[2.5]octan-6-yl)benzamide] | < 50
O=C(Nc1ccc2c(n1)N1CCC(F)(F)CC1CO2)c1ccc(NS(=O)(=O)CCO)cc1N1CCC2(CC1)CC2 (stereo not drawn) [EX07, N-(8,8-difluoro-6,6a,7,8,9,10-hexahydrodipyrido[3,2-b:1′,2′-d][1,4]oxazin-2-yl)-4-((2-hydroxyethyl)sulfonamido)-2-(6-azaspiro[2.5]octan-6-yl)benzamide] | < 50
O=C(Nc1cccn(CCCC(F)(F)F)c1=O)c1ccc(NS(=O)(=O)CCO)cc1N1CCC2(CC1)CC2 [EX04, 4-((2-hydroxyethyl)sulfonamido)-N-(2-oxo-1-(4,4,4-trifluorobutyl)-1,2-dihydropyridin-3-yl)-2-(6-azaspiro[2.5]octan-6-yl)benzamide] | 50 to 500

The remaining lines, values ahead:

IC50 [nM] | Structure (SMILES)
< 50 | O=C(Nc1ccnc2c1OCC1CC(F)(F)CCN21)c1ccc(NS(=O)(=O)CCO)cc1N1CCC2(CC1)CC2 (stereo not drawn) [EX10, N-(8,8-difluoro-6,6a,7,8,9,10-hexahydrodipyrido[3,2-b:1′,2′-d][1,4]oxazin-4-yl)-4-((2-hydroxyethyl)sulfonamido)-2-(6-azaspiro[2.5]octan-6-yl)benzamide]
< 50 | Cc1cc(NC(=O)c2cc3c(cc2N2CCC4(CC2)CC4)N(S(=O)(=O)CCO)CC3)nc(N2CCC(F)(F)CC2)n1 [EX15, N-(2-(4,4-difluoropiperidin-1-yl)-6-methylpyrimidin-4-yl)-1-((2-hydroxyethyl)sulfonyl)-6-(6-azaspiro[2.5]octan-6-yl)indoline-5-carboxamide]
< 50 | O=C(Nc1ccc(=O)n(CCCC(F)(F)F)n1)c1ccc(NS(=O)(=O)CCO)cc1N1CCC2(CC1)CC2 [EX08, 4-((2-hydroxyethyl)sulfonamido)-N-(6-oxo-1-(4,4,4-trifluorobutyl)-1,6-dihydropyridazin-3-yl)-2-(6-azaspiro[2.5]octan-6-yl)benzamide]
< 50 | CC(C)n1nc(NC(=O)c2cc3c(cc2N2CCC4(CC2)CC4)N(S(=O)(=O)CCO)CC3)ccc1=O [EX22, 1-((2-hydroxyethyl)sulfonyl)-N-(1-isopropyl-6-oxo-1,6-dihydropyridazin-3-yl)-6-(6-azaspiro[2.5]octan-6-yl)indoline-5-carboxamide]
< 50 | O=C(Nc1ccnc2c1OCC1CC(F)(F)CCN21)c1cc2c(cc1N1CCC3(CC1)CC3)N(S(=O)(=O)CCO)CC2 (stereo not drawn) [EX19, N-(8,8-difluoro-6,6a,7,8,9,10-hexahydrodipyrido[3,2-b:1′,2′-d][1,4]oxazin-4-yl)-1-((2-hydroxyethyl)sulfonyl)-6-(6-azaspiro[2.5]octan-6-yl)indoline-5-carboxamide]
< 50 | O=C(Nc1ccc(=O)n(C2CCC(F)(F)CC2)n1)c1cc2c(cc1N1CCC3(CC1)CC3)N(S(=O)(=O)CCO)CC2 [EX21, N-(1-(4,4-difluorocyclohexyl)-6-oxo-1,6-dihydropyridazin-3-yl)-1-((2-hydroxyethyl)sulfonyl)-6-(6-azaspiro[2.5]octan-6-yl)indoline-5-carboxamide]
500 to 15000 | COCCS(=O)(=O)N1CCc2cc(C(=O)Nc3cccc(N4CCOCC4)n3)c(N3CCC4(CC3)CC4)cc21 [EX13, 1-((2-methoxyethyl)sulfonyl)-N-(6-morpholinopyridin-2-yl)-6-(6-azaspiro[2.5]octan-6-yl)indoline-5-carboxamide]
500 to 15000 | Cc1cc(NC(=O)c2cc3c(cc2N2CCC4(CC2)CC4)N(C(=O)CCO)CC3)nc(N2CCC(F)(F)CC2)n1 [EX25, N-(2-(4,4-difluoropiperidin-1-yl)-6-methylpyrimidin-4-yl)-1-(3-hydroxypropanoyl)-6-(6-azaspiro[2.5]octan-6-yl)indoline-5-carboxamide]
50 to 500 | Cc1cc(NC(=O)c2cc3c(cc2N2CCC4(CC2)CC4)N(S(C)(=O)=O)CC3)nc(N2CCC(F)(F)CC2)n1 [EX20, N-(2-(4,4-difluoropiperidin-1-yl)-6-methylpyrimidin-4-yl)-1-(methylsulfonyl)-6-(6-azaspiro[2.5]octan-6-yl)indoline-5-carboxamide]
< 50 | O=C(Nc1ccc(=O)n(C2CC(F)(F)C2)n1)c1cc2c(cc1N1CCC3(CC1)CC3)N(S(=O)(=O)CCO)CC2 [EX18, N-(1-(3,3-difluorocyclobutyl)-6-oxo-1,6-dihydropyridazin-3-yl)-1-((2-hydroxyethyl)sulfonyl)-6-(6-azaspiro[2.5]octan-6-yl)indoline-5-carboxamide]
< 50 | O=C(Nc1cccc(N2CCOCC2)n1)c1cc2c(cc1N1CCC3(CC1)CC3)N(S(=O)(=O)CCO)CC2 [EX14, 1-((2-hydroxyethyl)sulfonyl)-N-(6-morpholinopyridin-2-yl)-6-(6-azaspiro[2.5]octan-6-yl)indoline-5-carboxamide]

— US20260209248A1, “INHIBITORS OF KIF18A AND USES THEREOF” (Insilico Medicine IP Limited, priority 2022, published 2026)
